In patent US20220024882A1, “NOVEL TUMOR ANTIGEN BINDING AGENTS AND USES THEREOF” (ITM Isotopen Technologien München AG, priority 2018, published 2022):
Values joined by “and” are separate entries in the source; they are usually repeats but may differ in a detail not shown here. Equal entries are not always repeated.

Experiments:
[1] = Whole-body activity measurements, tumor-bearing mice; format: in vivo, athymic nude Balb/c mice; conditions: 4 h p.i., 30 MBq, 1 nmol i.v., activity right after injection = 100%
Experimental: (§1) In vivo experiments were approved by the local veterinarian department and conducted in accordance with the Swiss law of animal protection. Mice were obtained from Charles River Laboratories, Sulzfeld, Germany, at the age of 5-6 weeks. Female, athymic nude Balb/c mice were subcutaneously inoculated with PSMA-positive PC-3 PIP cells (6×10^6 cells in 100 μL Hank's balanced salt solution (HBSS) with Ca^2+/Mg^2+) on the right shoulder and with PSMA-negative PC-3 flu cells (5×10^6 cells in 100 μL HBSS Ca^2+/Mg^2+) on the left shoulder. Two weeks later, the tumors reached a size of about 80-300 mm^3 suitable for the performance of the imaging studies.
The single radioligands (specific activity: 30 MBq/nmol) were diluted in 0.9% NaCl containing 0.05% bovine serum albumin (BSA) and i.v. injected into PC-3 PIP/flu tumor bearing mice (30 MBq, 1 nmol, 100 μL) for SPECT/CT imaging purposes. The mice were measured in a dose calibrator at 4 h, 24 h, 48 h and 72 h p.i., respectively.

[2] = tested on: PSMA-positive PC-3 PIP tumor-bearing mice; experiment: In vivo therapy study; parameters: species or system athymic nude BALB/c mice; conditions: for first mouse of group euthanized / median survival / TGDI5 (tumor growth delay index, 5-fold increase of tumor size): 1 nmol per mouse; for TGDI5 (tumor growth delay index, 5-fold increase of tumor size): controls = 1.0
Experimental: Mice were obtained from Charles River Laboratories, Sulzfeld, Germany, at the age of 5-6 weeks. Female, athymic nude BALB/c mice were subcutaneously inoculated with PSMA-positive PC-3 PIP cells (4×10^6 cells in 100 μL Hank's balanced salt solution (HBSS)) on the right shoulder. Six days later, the tumors reached a size of about 30-160 mm^3 suitable for the performance of the in vivo therapy study. Mice were euthanized when a predefined endpoint criterion was reached or when the study was finalized at Day 84. Endpoint criteria were defined as (i) body weight loss of >15%, (ii) a tumor volume of >800 mm^3 (iii) a combination of body weight loss of >10% and a tumor volume of >700 mm^3 or (iv) signs of unease and pain or a combination thereof.
Six days after subcutaneous inoculation of 4×10^6 PC-3 PIP tumor cells inoculation, three groups with statistically similar body weight and tumor volumes were intravenously injected. One group was injected with only the vehicle (saline containing 0.05% bovine serum albumin (BSA); Group A; n=6), and another two groups with ^177Lu-Ibu-DAB-PSMA (Group B: 2 MBq, 1 nmol (n=6) and Group C: 5 MBq, 1 nmol (n=6)) at Day 0 of the therapy study (Table 7). The monitoring of mice and the assessment of the therapy study was conducted as described by Eiber et al., J. Nucl. Med., 2017, 58 (Suppl. 2) 67S-76S). In short, the mice were monitored by measuring body weight and tumor size every second day over a period of 12 weeks. The relative body weight (RBW) was defined as [BWx/BW0], where BWx is the body weight in grams at a given Day x and BW0 is the body weight in grams at Day 0. The tumor dimensions were determined by measuring the longest tumor axis (L) and its perpendicular axis (W) with a digital caliper. The tumor volume (V) was calculated according to the equation [V=0.5×(LW^2)]. The relative tumor volume (RTV) was defined as [TVx/TV0], where TVx is the tumor volume in mm^3 at a given day x, and TV0 is the tumor volume in mm^3 at Day 0.
The efficacy of the radionuclide therapy was expressed as the tumor growth delay (TGDx), which was calculated as the time required for the tumor volume to increase x-fold over the initial volume at Day 0. The tumor growth delay index [TGDIx=TGDx(T)/TGDx(C)] was calculated as the TGDx ratio of treated mice (T) over the TGDx average of control mice (C) for a 5-fold (x=5, TGD5) increase of the initial tumor volume. The median survival was calculated using GraphPad Prism software (version 7). Survival of mice was assessed using Kaplan-Meier curves to determine median survival of mice of each group using Graph Pad Prism software (version 7).

[3] = Whole-body activity measurements, non-tumor bearing mice; format: in vivo; conditions: 4 h after injection, 25 MBq, 1 nmol i.v.
Experimental: All albumin-binding radioligands (molar activity: 25 MBq/nmol) were diluted in 0.9% NaCl containing 0.05% BSA and i.v. injected into non-tumor bearing mice (25 MBq, 1 nmol, 100 μL). The mice were measured in a dose calibrator at various time-points up to 56 h p.i. The radioligands were compared with previously obtained data from ^177Lu-PSMA-617.

[4] = tested on: PC-3 PIP/flu tumor-bearing mice; experiment: Biodistribution study in PC-3 PIP/flu tumor-bearing mice; format: in vivo, athymic nude Balb/c mice; conditions: for PC-3 flu Tumor: PSMA-negative tumor xenograft; for PC-3 flu Tumor / PC-3 PIP Tumor: mice; for PC-3 PIP Tumor: PSMA-positive tumor xenograft
Experimental: as §1, with “biodistribution” for “imaging”
Biodistribution studies were performed 12-15 days after PC-3 PIP/flu tumor cell inoculation. […] The radioligands were injected in a lateral tail vein in a volume of 100-200 μL. Mice were euthanized at different time points after injection (p.i.) of the radioligands. Selected tissues and organs were collected, weighed and measured using a γ-counter. The results were decay-corrected and listed as a percentage of the injected activity per gram of tissue mass (% IA/g) (Table 3 and 4).
Mice were obtained from Charles River Laboratories, Sulzfeld, Germany, at the age of 5-6 weeks. Female, athymic nude BALB/c mice were subcutaneously inoculated with PSMA-positive PC-3 PIP cells (6×10^6 cells in 100 μL Hank's balanced salt solution (HBSS)) on the right shoulder and with PSMA-negative PC-3 flu cells (5×10^6 cells in 100 μL HBSS) on the left shoulder. Two weeks later, the tumors reached a size of about 80-300 mm^3 suitable for the performance of the biodistribution and imaging studies.
Biodistribution studies were performed 12-15 days after PC-3 PIP/flu tumor cell inoculation. ^177Lu-Ibu-sPSMA was diluted in 0.9% NaCl containing 0.05% bovine serum albumin (BSA) to prevent adhesion to the vial and syringe material. The radioligand was injected in a lateral tail vein in a volume of 100 μL. Mice were euthanized at different time points after injection (p.i.) of the radioligand. Selected tissues and organs were collected, weighed and measured using a γ-counter. The results were decay-corrected and listed as a percentage of the injected activity per gram of tissue mass (% IA/g) (Table 6, FIG. 18).

[5] = 4 h p.i., PC-3 PIP/flu tumor-bearing mice
[6] = 24 h p.i., PC-3 PIP/flu tumor-bearing mice

Q: Which results are given for `CC(C)Cc1ccc(C(C)C(=O)NC(CCN)C(=O)NCCCCC(NC(=O)CN2CCN(CC(=O)O)CCN(CC(=O)O)CCN(CC(=O)O)CC2)C(=O)NCC2CCC(C(=O)NC(Cc3ccc4ccccc4c3)C(=O)NCCCCC(NC(=O)NC(CCC(=O)O)C(=O)O)C(=O)O)CC2)cc1` (stereo not shown) [^177Lu-Ibu-DAB-PSMA, metal not drawn]?
A: whole-body retention of radioactivity [1]: 17%; first mouse of group euthanized ([2]; 2 MBq): 26 days; median survival ([2]; 2 MBq): 34 days; TGDI5 (tumor growth delay index, 5-fold increase of tumor size) ([2]; 2 MBq): 1.6 and 1.6 ± 0.4; average relative body weight at the time of euthanasia ([2]; 5 MBq per mouse): 1.06±0.10; day on which the two mice with tumor regrowth reached the endpoint ([2]; 5 MBq per mouse): 70 days and 82 days; mice of the group in which the tumors disappeared entirely ([2]; 5 MBq per mouse, n=6): four; mice still alive at the end of the study at Day 84 ([2]; 5 MBq per mouse, n=6): four; first mouse of group euthanized ([2]; 5 MBq): 70 days; TGDI5 (tumor growth delay index, 5-fold increase of tumor size) ([2]; 5 MBq): not defined; median survival ([2]; 5 MBq, study end Day 84): undefined; whole-body retained activity [3]: 18%; Blood [4, 5]: 3.66 ± 0.45 % IA/g; Bone [4, 5]: 0.62 ± 0.08 % IA/g; Heart [4, 5]: 1.32 ± 0.10 % IA/g; Intestines [4, 5]: 0.71 ± 0.05 % IA/g; Kidneys [4, 5]: 19.4±1.84 % IA/g; Liver [4, 5]: 1.50 ± 0.12 % IA/g; Lung [4, 5]: 2.40 ± 0.31 % IA/g; Muscle [4, 5]: 0.54 ± 0.09 % IA/g; Salivary glands [4, 5]: 0.86 ± 0.38 % IA/g; Spleen [4, 5]: 1.14 ± 0.11 % IA/g; Stomach [4, 5]: 0.62 ± 0.12 % IA/g; Tumor-to-blood [4, 5]: 18.2 ± 2.69; Tumor-to-kidney [4, 5]: 3.01 ± 0.49; Tumor-to-liver [4, 5]: 44.6 ± 8.41; PC-3 flu Tumor ([4]; 4 h p.i.): 1.19 ± 0.30 % IA/g; PC-3 PIP Tumor ([4]; 4 h p.i.): 66.2 ± 11.0 % IA/g; Bone [4, 6]: 0.09 ± 0.02 % IA/g; Heart [4, 6]: 0.10 ± 0.01 % IA/g; Intestines [4, 6]: 0.11 ± 0.03 % IA/g; Kidneys [4, 6]: 6.00±0.68 % IA/g; Liver [4, 6]: 0.56 ± 0.10 % IA/g; Lung [4, 6]: 0.21 ± 0.03 % IA/g; Muscle [4, 6]: 0.05 ± 0.01 % IA/g; Salivary glands [4, 6]: 0.56 ± 0.37 % IA/g; Spleen [4, 6]: 0.32 ± 0.03 % IA/g; Stomach [4, 6]: 0.18 ± 0.13 % IA/g; Tumor-to-blood [4, 6]: 337 ± 40.4; Tumor-to-kidney [4, 6]: 8.88 ± 0.99; Tumor-to-liver [4, 6]: 98.3 ± 21.1; PC-3 flu Tumor ([4]; 24 h p.i.): 0.17 ± 0.01 % IA/g; PC-3 PIP Tumor ([4]; 24 h p.i.): 52.4 ± 2.35 % IA/g
